Experimental data taken from US20260072027A1, “Peptides And Method” (Queen Mary University of London, priority 2022, published 2026).
Entries after “also recorded” stand apart in the source; their conditions may differ. Where no end group is shown, it is not given here.

Legend:
[1] = tested on: autoantibodies to oxPTM-INS; assay: Competitive displacement ELISA, plate coated with oxidised insulin; format: binding, human
Description: A competitive displacement assay was performed to map the exact epitope, namely the exact amino acid sequence binding specificities and to test the binding to native peptides versus oxidised insulin peptides. The binding to the peptide was done by direct ELISA on the native or modified peptides or by competition ELISA. Initially native synthetic peptide was oxidised by exposing to 0.05 mM CuCl2; 90 mM H2O2; 10 mM NaOCl. Native and modified peptides were fractionated by AKTA to evaluated changes in molecular profile. AKTA fractions were then tested by ELISA for reactivity (FIGS. 2 and 3). We next perform competition ELISA with the native peptides and peptides exposed to 0.05 mM CuCl2; 90 mM H2O2; 10 mM NaOCl. Serum samples were pre-incubated with either native insulin peptides or oxidised insulin peptides. Finally, based on the amino acid sequence of the identified peptides we predicted the amino acids that would be oxidised by ^●OH and HOCl and designed synthetic peptides that contain the oxidised amino acids in the synthesis. Synthetic peptides were produced by standard commercially available methods, specifically by Peptide Protein Research Ltd. Briefly, peptide synthesis was performed by automated solid phase peptide synthesis (SPPS), which was followed by purification. Each individual amino acid was added to the growing chain according to the sequence. Where specified, dihydroxyphenylalanine was added to replace Tyr or cysteate were added to replace Cys. Similarly, these peptides were tested by competition ELISA. The table below describe the different competition ELISA performed:
Serum samples from children with type 1 diabetes were pre-incubated with the synthetic peptides before they were added to the native insulin or oxidised that were previously coated on the ELISA plate. If the antibodies in the serum sample bind to the peptide they will no longer bind to the insulin or oxidised insulin on the plate-competition ELISA. 1:200 dilutions of serum samples from T1D serum samples were pre-incubated for 2 hr at room temperature with the various peptides as shown in the table above. After incubation, serum/peptide mix was added to the ELISA plate previously coated overnight with either native insulin or oxidised insulin for an additional 2 hr incubation. Plates were then washed in a plate washer three times with PBS 0.05% tween. After washing, 100 ul of anti-human IgG diluted 1:1000 in 1% milk-PBS 0.05% tween were added for additional 1 hour and 30 min incubation. After washing, ELISA was developed by adding 100 ul of TMB (10 mg/ml in DMSO) in 10 ml of 0.1 M sodium acetate plus 2 ul of H2O2. Reaction was stopped by adding 0.5 M H2SO4 (usually 20 min for insulin ELISA).
To assess the binding specificity of serum samples to identified peptides, a competitive ELISA was performed. The ELISA was carried out following the method described above, except that the serum samples were pre-incubated for 2 h with and without 10 μg/ml peptides as competitors, before adding the serum samples to the insulin coated ELISA plate.

CD4+ T-cells (PBMCs) = assay: In vitro peptide stimulation and T-cell proliferation assay, CD4+; format: cell-based, human; settings: Type 1 diabetes (N = 18)
Source text: (§1) In vitro peptide stimulation and T-cell proliferation assay. Peripheral blood mononuclear cells (PBMCs) were freshly isolated from type 1 diabetes and healthy individuals using Ficoll-Hypaque density gradient centrifugation. PBMCs were labelled with the fluorescent dye CellTrace Violet (Invitrogen, Thermo Fisher Scientific) and cultured (2×10^5 cells/well) in round-bottom 96-well plates (Falcon, Becton Dickinson) with RPMI-1640 medium (Gibco, Thermo Fisher Scientific) supplemented with 5% autologous plasma in the presence or not of insulin peptides (20 μg/ml); PPD (10 μg/ml) and anti-CD3 (0.1 μg/ml; clone OKT3) were used as positive control. Two scrambled peptides: […] (SEQ ID NO: 17), […] (SEQ ID NO: 18), and the Exendin 9-39 fragment were used as negative controls. After 7 days, PBMCs were stained with PE-Cy7 anti-CD8 (clone RPA-T8, BD Pharmingen) and FITC anti-CD3 (clone UCHT1, BD Pharmingen). Samples were analysed by using a FACSCanto II (BD Bioscience) to evaluate T-cell proliferation measured as CellTrace Violet dilution. Cytofluorimetric analyses were performed using FlowJo Software (FlowJo, LLC). The results were given as stimulation index (SI), calculated as percentage of stimulated T-cell subset proliferation/percentage of unstimulated T-cell subset proliferation. Assay for detection of peptide specific T cells subsets was done as previously described (detailed in ESM methods, Assay for detection of peptide specific T cells)
(§2) T-cell stimulation with oxPTM-INSPs. To evaluate the immune cell response against the oxPTM-INSPs, we performed CD4+ and CD8+ T cells proliferation experiments using freshly isolated PBMCs (Study cohort 2, Table 1). Response was calculated as stimulatory index (SI) over unstimulated T-cells.

CD8+ T-cells (PBMCs) = assay: In vitro peptide stimulation and T-cell proliferation assay, CD8+; format: cell-based, human
Source text: as §1, §2

[2] = tested on: CD4+ and CD8+ T-cells and IgG autoantibodies; assay: Overlap of CD4+, CD8+ and IgG antibody responses (Venn analysis); format: cell-based, human; settings: type 1 diabetes
Source text: FIG. 13. Venn diagrams of CD4^+, CD8^+ and antibody response to oxPTM-INSPs. Panels a, b, and c show the overlap between IgG autoantibody and T-cell (CD4^+ and CD8^+) responses specific to oxPTM-INSP-3 (a), Nt-INSP-4 (b) and oxPTM-INSP-6 (c). Panels d, e, and f display the overlap between T-cell responses to the three insulin peptides and IgG to oxPTM-INS modified by hydroxyl radical (^●OH-INS). […] There is concordance between reactivity to oxPTM-INS and CD4^+ and CD8^+ reactivity for all three tested peptides (7/17, 8/18 and 8/18 for oxPTM-INSP-3, Nt-INSP-4 and oxPTM-INSP-6, respectively). The stimulatory index >1 was used for definition of positive T-cell response.
Correlation between T-cell stimulation and antibody response. Subjects evaluated for T-cell stimulation were also tested for antibody reactivity to either oxPTM-INSPs or oxidised intact insulin (oxPTM-INS) to assess correlations between humoral and cellular responses (FIG. 11-e-f). In study cohort 2, antibody reactivity to oxPTM-INSP-6 was the highest as observed in the study cohort 1, with 11/18 (61.1%) binding to at least one oxPTM-INSP-6 derivatives (p<0.001 oxPTM-INSP-6 vs. Nt-INSP-6). Detailed analysis of autoantibody response in this cohort is described in the ESM (ESM results Antibody binding to oxPTM-INSPs in Study cohort 2).
We then analysed the extent of correlation between CD4^+, CD8^+ and IgG antibody responses. […] The CD4^+ T cell response to Nt-INSP-4 frequently overlapped with CD8^+ (13/18 [72.2%]), and to a lesser extent to antibodies (7/18 [38.8%]). […] CD4^+ response to oxPTM-INSP-6 was linked to both CD8^+ and/or antibodies: […] patients had concordant CD4^+ and CD8^+ responses, while 9/18 (50%) patients had concordant CD4^+ and antibody responses. […] CD4^+ T-cell stimulation to Nt-INSP-4, oxPTM-INSP-6 and oxPTM-INSP-3 was associated with antibody reactivity to oxPTM-INS in 8/18 (44.4%), 8/18 (44.4%) and 7/18 (38.9%) type 1 diabetes patients.

[3] = molecular target: Serum IgG autoantibodies of subjects with type 1 diabetes (human); assay: competitive ELISA, T1D serum pre-incubated with peptide, plate coated with oxidised insulin (FIG. 2A)
[4] = molecular target: Serum IgG autoantibodies of subjects with type 1 diabetes (human); assay: competitive ELISA, T1D serum pre-incubated with peptide, plate coated with oxidised insulin (Example 3)

oxPTM-INSP-6: oxidised forms of insulin peptide 6 (B:21-30), in house oxidised or in silico derivatives (ERGFFYTPKT; not fully specified (N-terminus); also: oxidised forms, in house oxidised or in silico derivatives, modified residues not defined)
inhibition of type 1 diabetes serum binding to oxPTM-INS (in words) ([1]; sera pre-incubated with peptide competitor): strongly inhibited binding to oxPTM-INS; also recorded: able to inhibit the binding | reduced binding to oxidised whole insulin ([1]; type 1 diabetes sera pre-incubated with peptide): 35-75% | CD4+ T-cell response, subjects with SI > 3 (%) (CD4+ T-cells (PBMCs)): 66.7% | CD8+ T-cell response, subjects with SI > 1 (%) (CD8+ T-cells (PBMCs); Controls (N = 11)): 27.3% | CD8+ T-cell response, subjects with SI > 1 (%) (CD8+ T-cells (PBMCs); Type 1 diabetes (N = 18)): 72.2% | concordance between reactivity to oxPTM-INS and CD4+ and CD8+ reactivity (patients/patients) ([2]; Study cohort 2): 8/18 | patients with CD4+ T-cell stimulation associated with antibody reactivity to oxPTM-INS ([2]; Study cohort 2): 44.4% | patients with CD4+, CD8+ T-cells to the peptide and autoantibodies to oxPTM-INS simultaneously ([2]; Study cohort 2): 33.3% | patients with concordant CD4+ and antibody responses to the peptide ([2]; Study cohort 2): 50% | patients with concordant CD4+, CD8+ and IgG antibody response to the peptide ([2]; Study cohort 2): 44.4% | patients with overlapping (concordant) CD4+ and CD8+ responses to the peptide ([2]; Study cohort 2, SI >1): 72.2%

B1: oxPTM-INSP-3, peptide 3 oxidised in house (oxidant not specified at the place) (peptide)
peptide: SLYQLENYCN
modifications: not fully specified (N-terminus); also: oxidised in house (CuCl2, H2O2, NaOCl), modified residues not defined
% reduction of serum binding to oxidised whole insulin [3]: 35 to 80% | % reduction of serum binding to oxidised whole insulin [4]: 40 to 80%
